From paper PMC12154575, “Azvudine Suppresses Epithelial–Mesenchymal Transition in Hepatocellular Carcinoma by Targeting the Notch–HEY Signalling Pathway” (International Journal of Molecular Sciences, 2025) come the findings set out here.

The target in the assay is T1, Jagged1 (Homo sapiens, UniProt P78504).
T1 construct: gene JAG1; full-length extracellular domain (C2 to EGF16, 1277-JG-050, R&D Systems) tagged with an Fc-tag (Jagged1-Fc)
In words: label-free microscale thermophoresis (MST). In kind it is binding.

T1 sequence (P78504 34-1067 limits assumed): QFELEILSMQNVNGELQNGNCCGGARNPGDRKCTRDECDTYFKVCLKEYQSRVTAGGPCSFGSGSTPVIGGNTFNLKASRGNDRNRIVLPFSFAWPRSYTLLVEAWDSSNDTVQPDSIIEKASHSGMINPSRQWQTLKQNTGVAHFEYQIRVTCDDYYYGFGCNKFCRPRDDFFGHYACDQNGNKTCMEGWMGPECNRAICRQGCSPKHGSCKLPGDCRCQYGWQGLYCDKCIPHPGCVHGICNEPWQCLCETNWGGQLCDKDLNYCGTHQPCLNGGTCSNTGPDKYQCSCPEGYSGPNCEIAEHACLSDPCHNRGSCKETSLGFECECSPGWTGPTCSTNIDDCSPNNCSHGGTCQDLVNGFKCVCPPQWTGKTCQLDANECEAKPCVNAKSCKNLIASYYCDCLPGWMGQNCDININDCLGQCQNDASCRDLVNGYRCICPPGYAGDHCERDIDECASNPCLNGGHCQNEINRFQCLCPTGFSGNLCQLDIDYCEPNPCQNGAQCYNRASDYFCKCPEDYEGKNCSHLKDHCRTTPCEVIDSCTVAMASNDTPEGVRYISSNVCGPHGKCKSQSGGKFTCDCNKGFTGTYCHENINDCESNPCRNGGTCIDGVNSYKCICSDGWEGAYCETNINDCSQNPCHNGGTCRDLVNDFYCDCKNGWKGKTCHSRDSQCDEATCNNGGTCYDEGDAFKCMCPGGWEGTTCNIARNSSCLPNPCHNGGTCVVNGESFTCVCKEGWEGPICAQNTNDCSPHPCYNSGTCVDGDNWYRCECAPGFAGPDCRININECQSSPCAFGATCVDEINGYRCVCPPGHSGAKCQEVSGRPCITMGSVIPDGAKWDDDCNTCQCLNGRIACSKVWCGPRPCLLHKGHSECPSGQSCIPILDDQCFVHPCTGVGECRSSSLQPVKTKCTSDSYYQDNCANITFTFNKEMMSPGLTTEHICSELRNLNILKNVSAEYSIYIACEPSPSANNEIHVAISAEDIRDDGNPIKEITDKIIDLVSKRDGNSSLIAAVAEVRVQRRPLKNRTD

On to `[N-]=[N+]=N[C@]1(CO)O[C@@H](n2ccc(N)nc2=O)[C@@H](F)[C@@H]1O` [FNC, 2′-deoxy-2′-β-fluoro-4′-azidocytidine], for which binding was put at a Kd of 28.4 ± 6.6 µM.
